What was measured:
male NIH Swiss mice [1] = assay: Marble burying assay (with rotorod); type: in vivo, mouse; conditions: marbles buried in 30 min, rotorod for motor impairment
From the text: Marble burying in mice has been used to model anxiety disorders including obsessive-compulsive disorders (OCD) due to ethological study of the behavior (e.g. Gyertyan I. “Analysis of the marble burying response: Marbles serve to measure digging rather than evoke burying”, Behavioural Pharmacology 6: 24-31, (1995)) and due to the pharmacological effects of clinical standards (c.f., Njung'E K. Handley S L. “Evaluation of marble-burying behavior as a model of anxiety”, Pharmacology, Biochemistry & Behavior. 38: 63-67, (1991)); Borsini F., Podhorna J., and Marazziti, D. “Do animal models of anxiety predict anxiolytic effects of antidepressants?”, Psychopharmacology 163: 121-141, (2002)).
House experimentally-naïve male, NIH Swiss mice (Harlan Sprague-Dawley, Indianapolis, Ind.) weighing between 28-35 g in groups of 12 for at least three days prior to testing in a vivarium with 12 h light and dark cycles. Conduct experiments during the light cycle in a dimly lit experimental testing room. Dose mice with vehicle or test compound and, after a specified pretreatment interval (generally 30 min.), place each mouse individually on a rotorod (Ugo Basile 7650) operating at a speed of 6 revolutions/min. and observe for falling. […]
Clinically effective standard compounds suppress marble burying at doses that are devoid of motor-impairing effects as measured on the rotorod. […]

Wistar rats [2] = conditions: clinically effective OCD treatment standard compounds; cited from earlier work
male NIH Swiss mice [3] = conditions: compounds used to treat OCD, literature; cited from earlier work
male NIH Swiss mice [4] = assay: Nestlet shredding; type: in vivo, mouse; conditions: 30 min, rotorod for motor impairment
From the text: Mice naturally will construct nests of material available in their living environment. Since this behavior is obsessive in nature, it has been used to model OCD (Xia Li, Denise Morrow and Jeffrey M. Witkin, “Decreases in nestlet shredding of mice by serotonin uptake inhibitors: comparison with marble burying”, Psychopharmacology, submitted Jul. 14, 2003). House experimentally-naïve male, NIH Swiss mice (Harlan Sprague-Dawley, Indianapolis, Ind.) weighing between 28-35 g in groups of 12 for at least three days prior to testing in a vivarium with a 12 h light/dark cycle. Conduct experiments during the light cycle in an experimental room with normal overhead fluorescent lighting. Dose mice with vehicle or test compound and after a specified pretreatment interval (generally 30 min.), place the mice individually in a 17×28×12 cm high plastic tub with about 5 mm sawdust shavings on the floor along with a pre-weighed multi-ply gauze pad (51 mm square). After 30 min., weigh the remainder of the gauze pad not removed by the mouse. Determine the weight of the gauze used for nestlet construction by subtraction. Compare the results for test compound treated mice to the results for vehicle control treated mice with Dunnett's test.
Clinically effective OCD treatment standard compounds suppress nestlet shredding at doses that are devoid of motor-impairing effects as measured by the rotorod test. […]

Wistar rats [5] = assay: Schedule-induced polydipsia; type: in vivo, rat
From the text: Schedule-Induced Polydipsia
Food-deprived rats exposed to intermittent presentations of food will drink amounts of water that are far in excess of their normal daily intake and in excess of their intake when given all of their food at one time (Falk J L. “Production of polydipsia in normal rats by an intermittent food schedule”, Science 133: 195-196, (1961)). This excessive behavior is persistent and has been used to model OCD.
Maintain Wistar rats on a food restricted diet (to maintain 85% free feeding weight), but with free access to water. Train the rats in a behavioral testing chamber to press a lever to receive a food pellet under a fixed interval schedule, such that the rats are rewarded with a 45 mg food pellet the first time they press a lever after a 120 second interval has elapsed. The fixed interval is then reset to 120 seconds and the process repeated. Thus, during a 90 min. test session, the rats can earn a maximum of 45 pellets. The behavioral chamber is also equipped with a water bottle that is weighed before and after the session to determine the amount of water consumed.
Administer test compounds on Tuesdays and Fridays. […] Compare the rates of lever pressing and water consumption for each animal's performance during sessions after test compound treatment with that animal's performance during control sessions, expressed as a percent of the control rate. […]

Compound: CN(C)CCCN1c2ccccc2Sc2ccc(Cl)cc21 [chlorpromazine]
- Marble burying (male NIH Swiss mice [1]): decrease marble burying only at doses that also disrupt rotorod performance

Compound: CN(C)CCCN1c2ccccc2CCc2ccc(Cl)cc21 [chlomipramine]
- Schedule-induced polydipsia (clinical standards) (Wistar rats [2]): suppress schedule-induced polydipsia without producing notable changes in motor patterns, food intake, or behavior the following day

Compound: CNCCC(Oc1ccc(C(F)(F)F)cc1)c1ccccc1 (stereo not shown) [fluoxetine]
- Marble burying (clinical standards) (male NIH Swiss mice [3]): decrease burying
- Schedule-induced polydipsia (clinical standards) (Wistar rats [2]): suppress schedule-induced polydipsia without producing notable changes in motor patterns, food intake, or behavior the following day

Compound: C[C@H](N)Cc1ccccc1 [d-amphetamine]
- Nestlet shredding (male NIH Swiss mice [4]): decreases nestlet shredding only at doses that produce motoric side effects
- Effect on schedule-induced polydipsia with co-administered 5-HT2C antagonist (Wistar rats [5]; co-administration of the 5-HT2C receptor antagonist): not prevented by the 5HT2C receptor antagonist
- Schedule-induced polydipsia (water consumption) (Wistar rats [5]; food-restricted rats, 90 min session): decreases excessive drinking only at behaviorally stimulating doses

From patent publication US8680091B2, “6-arylalkylamino-2,3,4,5-tetrahydro-1H-benzo[d]azepines as 5-HT2C receptor agonists” (Eli Lilly and Company, priority 2005, dated 2014)
